Series [1] deals with T1, Bcl‐xL (Homo sapiens, UniProt Q07817, DEL45-84).
T1 construct: The protein Bcl‐xL (amino acids 1‐209, Δ45–84, kindly provided by Prof. Ho Sup Yoon); gift of Prof; Ho Sup Yoon, Nanyang Technological University, Singapore
In words: Competitive fluorescence polarization (FP) binding assay: Bcl‐xL and fluorescein‐labeled Bak BH3‐derived peptide. The conditions noted are these: for IC50: Bcl‐xL 37 nM, Bak BH3 peptide 4 nM, triplicate, read-out: IC50 against Bcl‐xL in FP assay. On the procedure: The abilities of triazoles 11 a/c to interfere with binding between Bcl‐xL and a fluorescein‐labeled peptide derived from the pro‐apoptotic Bcl‐2 protein Bak was analyzed in a competitive binding assay based on fluorescence polarization (FP).[9, 20]
Fluorescence polarization assays: Assays were performed essentially as described previously.[20, 30] The protein Bcl‐xL (amino acids 1‐209, Δ45–84, kindly provided by Prof. Ho Sup Yoon, Nanyang Technological University, Singapore)[31] was incubated with the test compounds for 1 h at room temperature at a protein concentration of 37 nM. Subsequently, fluorophore‐labeled Bak BH3‐derived peptide (5‐carboxyfluorescein‐[…]‐NH2 was added (final peptide concentration: 4 nM), and the fluorescence polarization was measured after another 60 min in a plate reader (Tecan Infinite F500). All experiments were carried out in triplicate. Buffer composition: 10 mM Tris pH 8.0, 50 mM NaCl, 1 mM EDTA, 0.1 % Nonidet P‐40 substitute, 1 mM DTT, and 2 % DMSO.

For series [2], the target named is T1, Bcl‐xL. The experiment in a line: Kinetic analysis by HPLC of the reaction between 12 d and 13 to generate 11 d in aqueous buffer, templated by Bcl‐xL. To be noted: for second‐order rate constant k of formation of 11 d from 12 d and 13: 12 d and 13 both 50 μM; for second‐order rate constant k of formation of 11 d from 12 d and 13 / rate acceleration over the reaction of 1 and benzyl azide in acetonitrile at room temperature: aqueous buffer, 37 °C. On the procedure: While the reactivities of cycloalkynes are typically characterized by their second‐order rate constants in the reaction with benzylazide in CD3CN, or sometimes CD3OD, the relevant reactivity of a cycloalkyne for use in iSPAAC is the reactivity between the functionalized cycloalkyne and the functionalized azide in aqueous media at the physiological temperature of 37 °C. We therefore analyzed the kinetics of the reaction between the functionalized cycloalkyne 12 d and the azide 13 in aqueous buffer by reversed‐phase (RP)‐HPLC. Incubation of 12 d and 13 (both at 50 μM) at 37 °C generated the triazole 11 d with a second‐order rate constant of 2.1±0.2×10^−3 M^−1 s^−1 (Figures 7 and S6). This represents a 450‐fold rate acceleration over the reaction of 1 and benzyl azide in acetonitrile at room temperature (k=4.7±0.1×10^−6 M^−1 s^−1). In the presence of an additional, equimolar amount of Bcl‐xL, this rate was further increased by a factor of 6 (k=1.33±0.06×10^−2 M^−1 s^−1), representing a 2800‐fold higher rate constant than observed in the standard reaction between 1 and benzyl azide in acetonitrile at room temperature. […] Of particular relevance in this context are the templated synthesis of sulfonamide‐based Bcl‐xL inhibitors using sulfonyl azides and thioacids,[23] and protein‐templated formation of 1,2,3‐triazoles from azides and terminal alkynes in the absence of Cu^I.[24]
Kinetic analysis by HPLC: 12 d (50 μM) and 13 (50 μM) were incubated at 37 °C in the absence of Bcl‐xL, in the presence of Bcl‐xL (50 μM), and in the presence of both Bcl‐xL (50 μM) and ABT‐737 (50 μM). At the given time points, aliquots of 60 μL were diluted with 60 μL of 0.1 % TFA in 4.5 % acetonitrile/H2O and analyzed by RP‐HPLC (100 μL injection volume). The formation of 11 d was quantified by peak area using a standard curve. 1/(50×10^−6−[11 d]) [M^−1] was plotted against time. Linear regression gave the second‐order rate constant k as the slope. Experiments were carried out in triplicate. Buffer composition: 10 mM Tris pH 8.0, 50 mM NaCl, 1 mM EDTA, 0.1 % Nonidet P‐40 substitute, and 4 % DMSO.

Details of series [3]: method as in PMID 18451170. To be noted: cited from earlier work.
On the set-up of series [4]: method as in PMID 18451170. To be noted: cited from earlier work. This is another data set of the same source.

T1 sequence (Q07817 with tags, fused parts or gaps DEL45-84): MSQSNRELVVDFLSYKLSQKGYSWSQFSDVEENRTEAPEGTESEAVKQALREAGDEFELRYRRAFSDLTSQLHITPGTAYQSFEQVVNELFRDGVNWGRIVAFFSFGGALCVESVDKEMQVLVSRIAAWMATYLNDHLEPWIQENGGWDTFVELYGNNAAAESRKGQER

`CN(C)CC[C@H](CSc1ccccc1)Nc1ccc(S(=O)(=O)NC(=O)CN=[N+]=[N-])cc1[N+](=O)[O-]` [compound 13] gave an inhibition at 100 µM on Bcl‐xL [1] (100 μM, FP assay) of 48 ± 3%.

Take `CN(C)CC[C@H](CSc1ccccc1)Nc1ccc(S(=O)(=O)NC(=O)Cn2nnc3c2CCCN(C(=O)OCc2ccccc2-c2ccc(Cl)cc2)CCC3)cc1[N+](=O)[O-]` [11 c]: the IC50 at Bcl‐xL [1] turned out to be 11.4 ± 0.9 µM.

Turning to `O=C(c1ccccc1-c1ccc(Cl)cc1)N1CCCC#CCCC1` [12 a], the “activity against Bcl‐xL in FP assay (in words)” value (“activity against Bcl‐xL” below) at Bcl‐xL [1] (100 μM, FP assay) is “inactive”; at Bcl‐xL [1] (100 μM, FP assay, listed as 12a) it was “no inhibition”.

Turning to `O=C(OCC1=C(c2ccc(Cl)cc2)CCNC1)N1CCCC#CCCC1` [12 d], the “activity against Bcl‐xL” value on Bcl‐xL [1] (100 μM, FP assay) is “inactive”; at Bcl‐xL [1] (100 μM, FP assay, listed as 12d) it was “no inhibition”.

Turning to `CN(C)CC[C@H](CSc1ccccc1)Nc1ccc(S(=O)(=O)NC(=O)Cn2nnc3c2CCCN(C(=O)OCC2=C(c4ccc(Cl)cc4)CCNC2)CCC3)cc1[N+](=O)[O-]` [11 d], the IC50 on Bcl‐xL [1] came to 2.42 ± 0.02 µM. For the same compound, at Bcl‐xL [1] (ratio of IC50 values, 11 d vs 11 c), the “almost 5-fold higher inhibitory potency of 11 d than 11 c” value is roughly 5 fold. Besides, the “second‐order rate constant k of formation of 11 d from 12 d and 13” value was 1.33±0.06×10^−2 M^−1 s^−1 at Bcl‐xL [2] (equimolar Bcl‐xL (50 μM)) and 2.1±0.2×10^−3 M^−1 s^−1 on Bcl‐xL [2] (no Bcl‐xL, RP‐HPLC). For the same compound, the figures for the “rate acceleration over the reaction of 1 and benzyl azide in acetonitrile at room temperature” value on Bcl‐xL [2] (no Bcl‐xL) and at Bcl‐xL [2] (with equimolar Bcl‐xL) were 450 fold and 2800 fold, respectively. Also, at Bcl‐xL [2] (with equimolar Bcl‐xL vs without Bcl‐xL), the “rate increase by Bcl‐xL (template effect)” value worked out at 6 factor.

On to `O=C(OCc1ccccc1-c1ccc(Cl)cc1)N1CCCC#CCCC1` [12 c], for which the “activity against Bcl‐xL” value is “inactive” at Bcl‐xL [1] (100 μM, FP assay) and “no inhibition” on Bcl‐xL [1] (100 μM, FP assay, listed as 12c).

With `CN(C)CC[C@H](CSc1ccccc1)Nc1ccc(S(=O)(=O)NC(=O)Cn2nnc3c2CCCN(C(=O)c2ccccc2-c2ccc(Cl)cc2)CCC3)cc1[N+](=O)[O-]` [11 a], the IC50 on Bcl‐xL [1] is 18 ± 0.7 µM.

Take `CN(C)CC[C@H](CSc1ccccc1)Nc1ccc(S(=O)(=O)NC(=O)c2ccc(N3CCN(Cc4ccccc4-c4ccc(Cl)cc4)CC3)cc2)cc1[N+](=O)[O-]` [ABT‐737]: the oral bioavailability result in series [3] is on record as “poor”. Moreover, in series [4], the “cell permeability in tissue culture” value was “cell‐permeable”.

The values are drawn from PMC9827882, “Templated Generation of a Bcl‐xL Inhibitor by Isomer‐Free SPAAC Based on Azacyclonon‐5‐yne” (Chemistry (Weinheim an Der Bergstrasse, Germany), 2022).
